How the values were obtained:
female NMRI mice = assay: Anorectic action: cumulated milk consumption after oral administration; type: in vivo
Experimental: The anorectic action was tested on female NMRI mice. After withdrawal of food for 24 hours, the test preparation of the invention was administered via a stomach tube. Kept individually and with free access to drinking water, the animals were offered evaporated milk 30 minutes after the administration of the preparation. The consumption of evaporated milk was determined every half-hour for 7 hours and the general condition of the animals was observed. The measured milk consumption was compared with that of untreated control animals.

melting point: 148 °C
Compound: OC12N=C(c3ccccc3)SC1(Br)Cc1cc(Cl)ccc12 (stereo not drawn) [Example 1, 8a-Bromo-6-chloro-2-phenyl-8,8a-dihydroindeno[1,2-d]thiazol-3a-ol]
Number of animals/ cumulated milk consumption of the treated animals N/[ml] (female NMRI mice; oral dose 50 mg/kg via stomach tube, female NMRI mice after 24 h food withdrawal, evaporated milk consumption determined over 7 hours, N=5): 5/0.64 ml
Reduction of the cumulated milk consumption in % of the control (female NMRI mice; oral dose 50 mg/kg, female NMRI mice, compared to untreated control animals): 82%
